≈ marks a conversion by molar mass, not a printed value.
Tests used:
gastric secretion = assay: Effects on Gastric Secretion in the Rat (Test B); format: in vivo; settings: pylorus ligated, s.c. 2 x 1.5 mg/kg, 4 hr
Description: B. Evaluation of the Effects of Prostaglandin Analogs III on Gastric Secretion in the Rat
A procedure based on that described by Lipmann (J. Pharm. Pharmacol., 21:335 [1968]) was used to assess the influence of test compounds on gastric secretion. Rats of one sex weighing 150 to 200 g were randomly divided into groups of six animals each and fasted for 48 hr previous to the experiments, water being available ad limitum. The animals were anesthetized with ether, the abdomen was opened through a midline incision and the pylorus was ligated. Test compounds were diluted from stock solution so as to administer a dose of 1.5 mg/kg in a volume equivalent to 1 ml/kg. Subcutaneous injections were applied immediately after surgery and again 2 hr later, so that a total dose of 3.0 mg/kg was administered. Dilutions were made with phosphate buffer (pH 7.38) as recommended by Lee et al. (Prostaglandins 3:29 [1973]), in order to insure adequate stability of drugs at the subcutaneous depot. Each compound was tested in one group of rats; an additional control group received only the vehicle.
Four hr after pyloric ligation the animals were killed with ether, the cardias ligated and the stomachs removed. The volume of gastric secretion was measured and the contents centrifuged at 5000 rpm for 10 min. Total acid in the supernatant was titrated against a 0.1 N sodium hydroxide solution and the amount expressed in mEq.
Volume and total acid values of the treated group were compared with those of the controls by the "T" test. Anti-secretory activity was scored according to the following scale: […]

rat uterus = assay: Effects on the Rat Uterus (Test F); settings: rat uterus segments, 0.001 to 10.0 mcg/ml, 29° C.; for EC50: read-out: Activity value, Test F: Effects on Rat Uterus (ED50, response of 50% that of carbachol)
Method: F. Evaluation of the Effects of Prostaglandin Analogs III on the Rat Uterus
The uterine stimulant effect of test compounds is determined in segments of uterus obtained from rats (140-160 g) pretreated subcutaneously with 1 mg/kg of diethylstibesterol 18 hr before the experiment. The tissues are placed in 10 ml chambers filled with de-Jalon solution at 29° C. and bubbled with 95% O2 and 5% CO2, and prepared for isometric recording with force displacement transducers. Preparations are stretched to an initial tension of 1 g and are left undisturbed for 30 min, after which two responses to 1 mcg/ml of carbachol added to the bath at a 10 min interval, are obtained (the value of the second response is recorded). Responses to increasing concentrations of the test compound (0.001 to 10.0 mcg/ml with one log intervals) are then recorded every 10 min. Preparations are washed four times after each response. All doses of drugs are administered in a 0.1 ml volume. Since it has been observed that the magnitude of the second response to carbachol, which is approximately 10% greater than the first, is close to the maximal response of the tissue, such value is taken as a measure of the sensititity of the particular segment. Responses to each concentration of the test compound are expressed in terms of percentage of the second response to carbachol and the ED50 (dose producing a response of 50% that of carbachol) is calculated graphically. Activity is scored according to the following scale: […]

femoral blood flow = assay: Effects on Femoral Blood Flow in the Dog (Test C); format: in vivo, dog (mongrel); settings: anesthetized dog, intraarterial 0.001 to 10 mcg
Method: C. Evaluation of the Effects of Prostaglandin Analogs III on the Femoral Blood Flow in the Dog
The peripheral vasodilator or constrictor effects of test compounds were determined in mongrel dogs of either sex, weighing between 10 and 20 kg anesthestized intravenously with 35 mg/kg of sodium pentobarbital. An external iliac artery was dissected immediately above the femoral arch for a length of approximately 5 cm and a previously calibrated, non-connulating electromagnetic flowmeter sensor with a lumen between 2.5 and 3.5 mm was placed snugly around the vessel. Cannulas were placed in a branch of the artery arising distally to the location of the flowmeter sensor for intraarterial drug administrations, in the contralateral femoral artery for systemic blood pressure recordings and in the trachea for artificial respiration with room air. Femoral blood flow and systemic blood pressure were continuously recorded with an electromagnetic flowmeter and pressure transducer, respectively.
After an adequate control period, test compounds were injected intraarterially at one log-spaced doses ranging from 0.001 to 10 mcg., in a volume of 0.5 ml and at 5 to 10 min intervals. Maximum changes in bloodflow, as well as any variations in blood pressure, were tabulated for each dose in absolute values (ml/min and mmHg). The calculations were made taking as control values those existing immediately before administration of each dose. The direction of the observed change (+ for increase and - for decrease) was also noted. The dose changing bloodflow by 100 ml/min (ED100 ml/min) was calculated graphically and was used for scoring activity as follows: […]

blood pressure = assay: Effects on Blood Pressure and Heart Rate in the Anesthetized Cat (Test D); format: in vivo; settings: i.v. 0.01 to 10.0 mcg/kg, scored on hypotension; for ED (50 mmHg): Felis catus, iv, read-out: Activity value, Test D: Normal Feline Blood Pressure and Heart Rate (ED50 mmHg)
Method: D. Evaluation of the Effects of Prostaglandin Analogs III on Blood Pressure and Heart Rate in the Anesthetized Cat
The acute effects of test compounds on blood pressure and heart rate were determined in cats of either sex anesthetized with a mixture of pentobarbital sodium (35 mg/kg, i.v.) and barbital sodium (100 mg/kg, i.v.). Cannulas were placed in the trachea to allow adequate spontaneous ventilation, in a femoral artery for blood pressure recording with a strain gage transducer, and in a saphenous vein for drug administration. Heart rate was recorded by means of a cardiotachometer driven by the R wave of the electrocardiogram. After a period of 10 min of stable recordings of blood pressure and heart rate, the test compound was administered intravenously at doses increasing from 0.01 to 10.0 mcg/kg, spaced one log and injected at 10 min intervals. All doses were injected in a volume of 0.1 ml/kg. Modifications of blood pressure and heart rate induced by the test compound were expressed both in absolute units (mmHg and beats/min) and as percent of values recorded immediately before administration of each dose. Biphasic responses were tabulated in the order in which they occur. The direction of the observed changes was also noted (+ for increase and - for decrease).
Activity of compounds in this test was judged only on the basis of the degree of hypotension observed. Thus, the ED50 mmHg (dose decreasing blood pressure by 50 mmHg) was calculated graphically and the compound scored according to the following scale: […]

[1] = tested on: blood pressure (hypertensive rat); assay: Effects on Blood Pressure in the Hypertensive Rat (Test E); format: in vivo; design: key: 0: Not significant at any time interval; 1: Significant at one time interval; 2: Significant at two time intervals; 3: Significant at three time intervals; 4: Significant at all four intervals; settings: 1 mg/kg intraperitoneal, 2, 4, 6 and 8 hr
Method: E. Evaluation of the Effects of Prostaglandin Analogs III on Blood Pressure in the Hypertensive Rat
The acute antihypertensive activity of test compounds is determined in rats made hypertensive by the procedure of Grollman (A. Proc. Soc. Exper. Biol. Med., 57:102, [1944]). Female rats weighing between 60 and 100 g are anesthetized with ether, the right kidney approached through a flank retroperitoneal incision, decapsulated and tied with a figure-of-eight ligature. The animals are left to recover and two weeks later are again anesthetized and the contralateral kidney removed. Four weeks after the second operation the rats are subjected to indirect blood pressure measurements and those showing systolic pressure values greater than 160 mmHg are selected for drug testing.
Blood pressure is measured in the tail with an inflatable occluding cuff placed at the base of the extremity and a pulse detector located distally. The cuff is inflated to approximately 300 mmHg and is slowly deflated until pulsations appear, indicating the level of systolic pressure; diastolic pressure is not recorded by this procedure. All measurements are carried out in unanesthetized, unsedated animals maintained in a warm environment during the recording procedure and for at least 6 hr before. In all cases, three pressure readings are obtained in succession and mean values are calculated thereof.
Experiments are carried out in groups of five hypertensive rats in which systolic pressure is determined immediately before and 2, 4, 6 and 8 hr after the intraperitoneal administration of the test compound at a dose of 1 mg/kg. Drugs are diluted from stock solutions with phosphate buffer (Lee et al., Prostaglandins 3:29 [1973]), so as to inject this quantity in a volume of 1 ml/kg. Changes from control blood pressure values are calculated for each interval both in mmHg and in per-cent, and evaluated for significance by means of Wilcoxon's signed rank test (Wilcoxon and Wilcox, Some rapid approximate statistical procedures, Lederle Laboratories, Pearl River [1964]).

SMILES | Activity value, Test B: Inhibition of a Rodent Gastric Secretion (% decrease in acidity) (gastric secretion) | Activity value, Test F: Effects on Rat Uterus (ED50, response of 50% that of carbachol) (rat uterus) | Activity value, Test C: Increase in Canidae Femoral Blood Flow (ED100 ml/min) (femoral blood flow) | Activity value, Test D: Increase in Normal Feline Blood Pressure and Heart Rate (ED50 mmHg) (blood pressure) | Activity value, Test E: Effects on Blood Pressure in Hypertensive Rat (blood pressure decrease) [1] | ED (50 mmHg) (blood pressure) | EC50 (rat uterus)
CCC1CC(C(/C=C/C2C=CC(=O)C2CCCCCCC(=O)OC)OC(C)=O)C1 (stereo not drawn) [TR-4281, Methyl 15RS-acetoxy-16,18-methano-9-oxoprosta-10,13E-dien-1-oate] | 0 (<26) | 0 (>10) | – | – | – | – | –
CCC1CC([C@H](O)/C=C/C2C(O)CC(O)C2CCCCCCC(=O)OC)C1 (stereo partly drawn) [TR-4624, Methyl 16,18-methano-9α,1α,15S-trihydroxyprost-13E-en-1-oate] | 0 (<26) | 0 (>10) | 0 (>10.0) | 0 (>10.1) | 0 | – | –
CCC1CC([C@H](O)/C=C/C2C(O)CC(O)C2CCCCCCC(=O)OC)C1 (stereo partly drawn) [TR-4625, Methyl 16,18-methano-9β,11α,15S-trihydroxyprost-13E-en-1-oate] | 0 (<26) | 0 (>10) | 0 (>10.0) | 0 (>10.1) | 0 | – | –
CCC1CC([C@H](O)/C=C/C2C(O)CC(O)C2CCCCCCCO)C1 (stereo partly drawn) [TR-4627, 16,18-Methanoprost-13E-en-1,9β,11α,15S-tetraol] | 0 (<26) | 0 (>10) | – | – | – | – | –
CCCCC1([C@@H](O)/C=C/[C@H]2[C@H](O)CC(=O)[C@@H]2CCCCCCC(=O)OC)CCC1 [TR-4677, Methyl 11α,15S-dihydroxy-9-oxo-16-,16-propanoprost-13E-en-1-oate] | – | – | 0 (>10.0) | – | 0 | > 0.0101 mg/kg | 0.01 to 0.1 µg/mL (≈ 0.0245 to 0.245 µM)
CCC1CC(C)([C@@H](O)/C=C/[C@H]2[C@H](O)CC(=O)[C@@H]2CCCCCCC(=O)OC)C1 (stereo partly drawn) [TR-4682, Methyl 11α,15S-dihydroxy-16,18-methano-16-methyl-9-oxoprost-13E-en-1-oate] | – | – | 3 (0.01-0.1) | – | 0 | 0.00101 to 0.01 mg/kg | > 10 µg/mL
CCC1CC(C)([C@H](O)/C=C/[C@H]2[C@H](O)CC(=O)[C@@H]2CCCCCCCO)C1 (stereo partly drawn) [TR-4688, 16,18-Methano-16-methyl-1,11α,15R-trihydroxyprost-13E-en-9-onc] | – | – | 0 (>10.0) | – | 0 | > 0.0101 mg/kg | > 10 µg/mL
COC(=O)CCCCCC[C@H]1C(=O)C[C@@H](O)[C@@H]1/C=C/[C@@H](O)C1(C)CCC1 [TR-4690, Methyl 16,19-cyclo-11α,15R-dihydroxy-16-methyl-20-nor-9-oxoprost-13E-en-1-oate] | – | – | 2 (0.11-1.0) | – | 0 | 0.00101 to 0.01 mg/kg | > 10 µg/mL
COC(=O)CCCCCC[C@H]1C(=O)C[C@@H](O)[C@@H]1/C=C/[C@H](O)C1(C)CCC1 [TR-4691, Methyl 16,19-cyclo-11α,15S-dihydroxy-16-methyl-20-nor-9-oxoprost-13E-en-1-oate] | – | – | 2 (0.11-1.0) | – | 0 | > 0.0101 mg/kg | > 10 µg/mL
CCC1CC(C)([C@@H](O)/C=C/C2C=CC(=O)C2CCCCCCC(=O)OC)C1 (stereo partly drawn) [TR-4695, Methyl 15S-hydroxy-16,18-methano-16-methyl-9-oxoprosta-10,13E-dien-1-oate] | 0 (<26) | 0 (>10) | – | – | – | – | –

— US4220795A, “Cyclobutyl substituted derivatives of prostaglandin analogs” (Miles Laboratories, Inc., priority 1978, dated 1980)
